{"source": "patent US9055741B2", "about": "“Contacting crop plants with compositions” (Rohm and Haas Company, priority 2006, dated 2015)", "assay_type_in_all_cases": "in vivo", "key": {"[1]": {"tested_on": "Soybean plants", "assay": "Soybean crop yield and protein content", "conditions": "for Protein %: untreated 36.93/36.87; for Yield: untreated 3607.20/3687.67", "method": "(§1) Spray tank was filled with approximately two-thirds of the total volume of water required. The amount of Powder 1 or Powder 2 was weighed according to the rate and total volume of spray being prepared. The appropriate amount of was calculated to give 1% v/v of total spray volume. Adjuvant 1 was added to the spray tank, which was agitated until the mixture turned milky white. Powder 1 or Powder 2 was added to the spray container, which was then gently (not vigorously) agitated. The remaining water was added, making sure all of the powder was wet and washed off of the sides of the tank (if any had deposited there). The spray tank was then swirled or stirred for at least two minutes (2-5 minutes) to ensure good mixing. Between 5 and 60 minutes thereafter, plants were sprayed with the mixture.\n(§2) Flat fan nozzles were used, producing droplet size of 100 to 500 micrometers. Spray rate of mixture was 500 liter per hectare. Backpack sprayer was used. Spraying was performed before 10:00 am.\nSoybean plants were treated using methods similar to those of Example 1. Treatment was performed when the plants were at one or more of the following growth stages: R2, R3, and R5.5."}, "[2]": {"tested_on": "fusarium disease", "assay": "Wheat field treatment: damage from fusarium disease", "conditions": "untreated 6", "method": "as §1, §2\n(§3) Using methods similar to those of Example 1, wheat was sprayed at stage F10.5. Frost damage was assessed by examining the portion of the seed head damaged; the percentage of barren husks is reported. Damage from fusarium disease was assessed as a percentage of seed heads damaged by the disease organism."}, "[3]": {"tested_on": "Fuji apple trees", "assay": "Fuji apples: staining after harvest and storage", "conditions": "250 ppm, approximately 211 g/ha (520 g/acre) each, Untreated 12", "text": "Fuji apple trees were sprayed prior to harvest either one or two times, with spray containing 250 ppm of 1-MCP. Each spraying provided treatment of approximately 211 g/ha ([…]). After harvesting and storage, the apples were inspected for staining."}, "[4]": {"tested_on": "wheat", "assay": "Wheat field treatment: yield and frost damage", "conditions": "for Frost Damage (percentage of barren husks): untreated 21; for Yield: untreated 3890", "method": "as §1, §2, §3"}, "[5]": {"tested_on": "cotton", "assay": "Cotton field treatment: lint yield", "conditions": "UTC 228.0, Adjuvant 1 only 245.1", "method": "as §1, §2\nUsing methods similar to those of Example 1, cotton was also tested. Each treated group of plants was treated either two or three times, as follows:\nThe crop yield was assessed as the weight of lint per hectare. Treatment types, treatment amounts (grams of AI per hectare), and results were as follows. Many of the treatments lead to improvements in the yield of lint."}, "[6]": {"tested_on": "Golden Delicious apple trees", "assay": "Golden Delicious fruit drop after pre-harvest spray", "conditions": "NAA 20 ppm, AVG 125 ppm, Powder 1 375 g AI/ha", "method": "as §1, §2\nUsing methods similar to those of Example 1, Golden Delicious apple trees were sprayed one week before the apples would normally be harvested for commercial use. The apples were left on the trees to observe postharvest drop. The spray containing Powder 1 was used to give 375 gram of AI per hectare. NAA was used at 20 ppm, and AVG was used at 125 ppm. […]"}, "[7]": {"conditions": "1 g/ha, timing R2, R3, and R5.5"}, "[8]": {"conditions": "10 g/ha, timing R2, R3, and R5.5"}, "[9]": {"conditions": "30 g/ha, timing R2, R3, and R5.5"}, "[10]": {"conditions": "dosage Exaggerated 1, every 2 weeks"}, "[11]": {"conditions": "dosage Exaggerated 2, every 2 weeks"}}, "data": [{"compound": "CC1=CC1", "note": "[1-MCP, 1-methylcyclopropene]", "values": [{"measurement": "Protein %", "setting": "[1]; [7]", "result": 38.4, "unit": "%"}, {"measurement": "Yield", "setting": "[1]; [7]", "result": 3955.68, "unit": "kg/ha"}, {"measurement": "Protein %", "setting": "[1]; 1 g/ha, timing R2", "result": 37.88, "unit": "%"}, {"measurement": "Yield", "setting": "[1]; 1 g/ha, timing R2", "result": 3691.44, "unit": "kg/ha"}, {"measurement": "Protein %", "setting": "[1]; 1 g/ha, timing R2 and R3", "result": 37.85, "unit": "%"}, {"measurement": "Yield", "setting": "[1]; 1 g/ha, timing R2 and R3", "result": 3786.48, "unit": "kg/ha"}, {"measurement": "Protein %", "setting": "[1]; 1 g/ha, timing R2 and R5.5", "result": 38.45, "unit": "%"}, {"measurement": "Yield", "setting": "[1]; 1 g/ha, timing R2 and R5.5", "result": 3704.04, "unit": "kg/ha"}, {"measurement": "Protein %", "setting": "[1]; 1 g/ha, timing R3", "result": 37.89, "unit": "%"}, {"measurement": "Yield", "setting": "[1]; 1 g/ha, timing R3", "result": 3795.48, "unit": "kg/ha"}, {"measurement": "Protein %", "setting": "[1]; 1 g/ha, timing R3 and R5.5", "result": 38.75, "unit": "%"}, {"measurement": "Yield", "setting": "[1]; 1 g/ha, timing R3 and R5.5", "result": 3763.80, "unit": "kg/ha"}, {"measurement": "Protein %", "setting": "[1]; 1 g/ha, timing R5.5", "result": 38.25, "unit": "%"}, {"measurement": "Yield", "setting": "[1]; 1 g/ha, timing R5.5", "result": 3659.76, "unit": "kg/ha"}, {"measurement": "Protein %", "setting": "[1]; [8]", "result": 37.87, "unit": "%"}, {"measurement": "Yield", "setting": "[1]; [8]", "result": 4119.48, "unit": "kg/ha"}, {"measurement": "Protein %", "setting": "[1]; 10 g/ha, timing R2", "result": 37.67, "unit": "%"}, {"measurement": "Yield", "setting": "[1]; 10 g/ha, timing R2", "result": 3671.64, "unit": "kg/ha"}, {"measurement": "Protein %", "setting": "[1]; 10 g/ha, timing R2 and R3", "result": 38.27, "unit": "%"}, {"measurement": "Yield", "setting": "[1]; 10 g/ha, timing R2 and R3", "result": 3872.84, "unit": "kg/ha"}, {"measurement": "Protein %", "setting": "[1]; 10 g/ha, timing R2 and R5.5", "result": 38.63, "unit": "%"}, {"measurement": "Yield", "setting": "[1]; 10 g/ha, timing R2 and R5.5", "result": 3817.80, "unit": "kg/ha"}, {"measurement": "Protein %", "setting": "[1]; 10 g/ha, timing R3", "result": 38.64, "unit": "%"}, {"measurement": "Yield", "setting": "[1]; 10 g/ha, timing R3", "result": 3757.68, "unit": "kg/ha"}, {"measurement": "Protein %", "setting": "[1]; 10 g/ha, timing R3 and R5.5", "result": 38.3, "unit": "%"}, {"measurement": "Yield", "setting": "[1]; 10 g/ha, timing R3 and R5.5", "result": 3791.52, "unit": "kg/ha"}, {"measurement": "Protein %", "setting": "[1]; 10 g/ha, timing R5.5", "result": 38.32, "unit": "%"}, {"measurement": "Yield", "setting": "[1]; 10 g/ha, timing R5.5", "result": 3721.32, "unit": "kg/ha"}, {"measurement": "Protein %", "setting": "[1]; [9]", "result": 37.48, "unit": "%"}, {"measurement": "Yield", "setting": "[1]; [9]", "result": 4347.00, "unit": "kg/ha"}, {"measurement": "Protein %", "setting": "[1]; 30 g/ha, timing R2", "result": 38.08, "unit": "%"}, {"measurement": "Yield", "setting": "[1]; 30 g/ha, timing R2", "result": 3702.24, "unit": "kg/ha"}, {"measurement": "Protein %", "setting": "[1]; 30 g/ha, timing R2 and R3", "result": 36.73, "unit": "%"}, {"measurement": "Yield", "setting": "[1]; 30 g/ha, timing R2 and R3", "result": 4118.76, "unit": "kg/ha"}, {"measurement": "Protein %", "setting": "[1]; 30 g/ha, timing R2 and R5.5", "result": 38.56, "unit": "%"}, {"measurement": "Yield", "setting": "[1]; 30 g/ha, timing R2 and R5.5", "result": 3844.44, "unit": "kg/ha"}, {"measurement": "Protein %", "setting": "[1]; 30 g/ha, timing R3", "result": 38.33, "unit": "%"}, {"measurement": "Yield", "setting": "[1]; 30 g/ha, timing R3", "result": 3747.24, "unit": "kg/ha"}, {"measurement": "Protein %", "setting": "[1]; 30 g/ha, timing R3 and R5.5", "result": 37.87, "unit": "%"}, {"measurement": "Yield", "setting": "[1]; 30 g/ha, timing R3 and R5.5", "result": 3946.68, "unit": "kg/ha"}, {"measurement": "Protein %", "setting": "[1]; 30 g/ha, timing R5.5", "result": 37.58, "unit": "%"}, {"measurement": "Yield", "setting": "[1]; 30 g/ha, timing R5.5", "result": 3817.80, "unit": "kg/ha"}, {"measurement": "Protein %", "setting": "[1]; [10]", "result": 38.62, "unit": "%"}, {"measurement": "Yield", "setting": "[1]; [10]", "result": 3923.64, "unit": "kg/ha"}, {"measurement": "Protein %", "setting": "[1]; [11]", "result": 37.89, "unit": "%"}, {"measurement": "Yield", "setting": "[1]; [11]", "result": 4167.00, "unit": "kg/ha"}, {"measurement": "Disease Damage (percentage of seed heads damaged)", "setting": "[2]; 10 g/ha AI at stage F10.5", "result": 0.5, "unit": "%"}, {"measurement": "Disease Damage (percentage of seed heads damaged)", "setting": "[2]; 25 g/ha AI at stage F10.5", "result": 3, "unit": "%"}, {"measurement": "% Staining", "setting": "[3]; 1 spray application", "result": 8.5, "unit": "%"}, {"measurement": "% Staining", "setting": "[3]; 2 spray applications", "result": 3, "unit": "%"}, {"measurement": "Frost Damage (percentage of barren husks)", "setting": "[4]; 10 g/ha AI at stage F10.5", "result": 6, "unit": "%"}, {"measurement": "Yield", "setting": "[4]; 10 g/ha AI at stage F10.5", "result": 4458, "unit": "kg dry weight/ha"}, {"measurement": "Frost Damage (percentage of barren husks)", "setting": "[4]; 25 g/ha AI at stage F10.5", "result": 3, "unit": "%"}, {"measurement": "Yield", "setting": "[4]; 25 g/ha AI at stage F10.5", "result": 4522, "unit": "kg dry weight/ha"}, {"measurement": "Lint", "setting": "[5]; 250 g/ha AI, type EB 2", "result": 245.3, "unit": "kg/ha"}, {"measurement": "Lint", "setting": "[5]; 250 g/ha AI, type EB 3", "result": 250.2, "unit": "kg/ha"}, {"measurement": "Lint", "setting": "[5]; 250 g/ha AI, type PHS 2", "result": 230.6, "unit": "kg/ha"}, {"measurement": "Lint", "setting": "[5]; 250 g/ha AI, type PHS 3", "result": 231.8, "unit": "kg/ha"}, {"measurement": "Lint", "setting": "[5]; 500 g/ha AI, type EB 2", "result": 234.2, "unit": "kg/ha"}, {"measurement": "Lint", "setting": "[5]; 500 g/ha AI, type EB 3", "result": 261.3, "unit": "kg/ha"}, {"measurement": "Lint", "setting": "[5]; 500 g/ha AI, type PHS 2", "result": 257.6, "unit": "kg/ha"}, {"measurement": "Lint", "setting": "[5]; 500 g/ha AI, type PHS 3", "result": 262.0, "unit": "kg/ha"}, {"measurement": "Lint", "setting": "[5]; 1250 g/ha AI, type EB 2", "result": 235.0, "unit": "kg/ha"}, {"measurement": "Lint", "setting": "[5]; 1250 g/ha AI, type EB 3", "result": 260.7, "unit": "kg/ha"}, {"measurement": "Lint", "setting": "[5]; 1250 g/ha AI, type PHS 2", "result": 253.9, "unit": "kg/ha"}, {"measurement": "Lint", "setting": "[5]; 1250 g/ha AI, type PHS 3", "result": 241.4, "unit": "kg/ha"}]}, {"compound": "O=C(O)Cc1cccc2ccccc12", "note": "[NAA, 1-naphthaleneacetic acid]", "values": [{"measurement": "number of dropped fruit per tree", "setting": "[6]; day 0 after treatment, UTC 0", "result": 0}, {"measurement": "number of dropped fruit per tree", "setting": "[6]; day 7 after treatment, UTC 18", "result": 5}, {"measurement": "number of dropped fruit per tree", "setting": "[6]; day 21 after treatment, UTC 45", "result": 20}, {"measurement": "number of dropped fruit per tree", "setting": "[6]; day 28 after treatment, UTC 115", "result": 65}, {"measurement": "number of dropped fruit per tree", "setting": "[6]; day 35 after treatment, UTC 195", "result": 118}, {"measurement": "number of dropped fruit per tree", "setting": "[6]; day 62 after treatment, UTC 30", "result": 11}]}]}
